The source of these data is patent US8822471B2, “Compounds, pharmaceutical compositions and uses thereof” (Boehringer Ingelheim International GmbH, priority 2011, dated 2014).

Assay [1] deals with T1, mutant form of the human GPR119 receptor (Homo sapiens, UniProt Q8TDV5, S329A/T327A).
T1 construct: T327 & S329 changed to alanines; expressed in transfected cells
T1 sequence (Q8TDV5 2-335 T327A/S329A): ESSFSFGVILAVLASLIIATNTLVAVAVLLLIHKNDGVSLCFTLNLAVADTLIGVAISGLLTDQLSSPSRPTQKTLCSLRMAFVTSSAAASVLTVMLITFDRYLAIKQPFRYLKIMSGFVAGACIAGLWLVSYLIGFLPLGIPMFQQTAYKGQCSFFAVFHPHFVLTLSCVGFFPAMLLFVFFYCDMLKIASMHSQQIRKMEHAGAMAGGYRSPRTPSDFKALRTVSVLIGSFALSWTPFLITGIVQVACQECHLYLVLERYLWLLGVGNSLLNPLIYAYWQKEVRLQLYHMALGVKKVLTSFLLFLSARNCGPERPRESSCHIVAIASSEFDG
The experiment in a line: LANCE cAMP-384 assay in HEK293 cells stably expressing a mutant form of the human GPR119 receptor. It is filed as cell-based. As to conditions: HEK293 cells stably expressing mutant human GPR119, LANCE cAMP-384 Kit, 20 min at 37° C. The protocol: Quantitative detection of cAMP accumulation from cells expressing human GPR119 receptor is achieved using Perkin Elmer's LANCE cAMP-384 Kit (Cat#AD0264) according to the manufacturer's protocol. Briefly, HEK293 cells stably expressing a mutant form of the human GPR119 receptor as assay tool (Methionine 1 replaced with the amino acid sequence […], and T327 & S329 changed to alanines; SEQ ID No. 1) are grown to 50-70% confluency in cell culture media (DMEM, 10% heat inactivated Fetal Bovine Serum, 50 I.U./mL penicillin, 50 μg/mL streptomycin, 10 mM HEPES, 20 μg/mL G418 Sulfate). On the day of the assay, GPR119 stable HEK293 cells are lifted from the tissue culture plate and 1000 cells/well are incubated along with various concentrations of test compounds for 20 min at 37° C. Detection Buffer (50 mM HEPES, 10 mM calcium chloride, 0.35% Triton X-100, 1 mg/mL BSA) containing cAMP-specific antibody is then added to all wells and allowed to equilibrate in the dark for 10 minutes at room temperature. Upon equilibration, Detection Buffer containing europium-labeled cAMP tracer complex is added to all wells and allowed to react for 1 hour at room temperature. After 1 hour, bound europium-labeled cAMP tracer is measured using a Perkin Elmer Envision plate reader. The quantity of cAMP generated in each well is derived from a standard curve. EC50 is determined using nonlinear regression analysis of the cAMP values over a range of agonist concentration (12 points spanning the range from 30 μM to 100 pM).
(In general: In TR-FRET formats the signal depends on donor and acceptor labels being close together.)

Another assay addresses T2, human GPR119 (Homo sapiens, UniProt Q8TDV5).
T2 construct: expression vector for human GPR119 cDNA (Acc. No. NP_848566); expressed in transfected cells
T2 sequence (Q8TDV5 1-335): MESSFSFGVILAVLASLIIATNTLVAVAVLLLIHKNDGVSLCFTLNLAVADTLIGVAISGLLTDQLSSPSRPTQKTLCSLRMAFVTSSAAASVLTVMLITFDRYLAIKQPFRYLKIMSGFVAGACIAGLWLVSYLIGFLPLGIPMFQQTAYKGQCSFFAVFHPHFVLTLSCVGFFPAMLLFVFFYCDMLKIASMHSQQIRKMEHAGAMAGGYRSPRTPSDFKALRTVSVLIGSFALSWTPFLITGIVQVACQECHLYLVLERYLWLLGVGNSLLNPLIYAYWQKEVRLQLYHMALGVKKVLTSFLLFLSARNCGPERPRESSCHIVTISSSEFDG
The experiment in a line: AlphaScreen cAMP assay in MIN6 cells stably transfected with human GPR119. It is filed as cell-based. To be noted: Min-6/hGPR119 cells, AlphaScreen cAMP Assay Kit, 45 minutes incubation at room temperature. The procedure, abridged:
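MIN6 cells stably expressing human GPR119, seeded 24 h, then stimulated 45 min at room temperature with compound in pH 7.4 Hepes-buffered salt solution with 0.5 mM IBMX, 0.1% BSA, 1% DMSO. Intracellular cAMP measured by AlphaScreen.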
(Bead proximity is the source of the signal in Alpha formats.)

In general, EC50 refers to the concentration at which the effect is half-maximal. Higher therefore signals a need for much substance. `Cc1nnnn1-c1ccc(C(=O)N(C2CC2)[C@@H]2CCN(c3ccc(C(F)(F)F)cn3)C[C@@H]2F)cc1` (single isomer, unassigned) [Example 120] had an EC50 in assay [1] of 745 nM.

For the compound `O=C(c1ccc(-n2cnnn2)c(F)c1)N(C1CC1)[C@@H]1CCN(c2ccc(C(F)(F)F)cn2)C[C@@H]1F` (single isomer, unassigned) [Example 121], the response in assay [1] was half-maximal at 134 nM (EC50).

Consider `O=C(c1ccc(-c2cnco2)cc1)N(C1CC1)C1CCN(c2cnccn2)CC1` [Example 85, N-Cyclopropyl-4-oxazol-5-yl-N-(1-pyrazin-2-yl-piperidin-4-yl)-benzamide], for which the EC50 at human GPR119 amounted to 449 nM.

For `N#Cc1cnc(N2CCC(N(C(=O)c3ccc(-c4cnco4)cc3)C3CC3)CC2)cn1` [Example 86, N-[1-(5-Cyano-pyrazin-2-yl)-piperidin-4-yl]-N-cyclopropyl-4-oxazol-5-yl-benzamide], the EC50 on human GPR119 was 139 nM. This EC50 is about 3.2-fold lower than that of the compound before.

On to `O=C(c1ccc(-c2cnco2)cc1)N(C1CC1)C1CCN(c2nnc(C(F)(F)F)s2)CC1` [Example 87, N-Cyclopropyl-4-oxazol-5-yl-N-[1-(5-trifluoromethyl-[1,3,4]thiadiazol-2-yl)-piperidin-4-yl]-benzamide], for which a half-maximal effect at human GPR119 (EC50) was put at 25 nM.

On to `O=C(c1ccc(-c2cnco2)cc1)N(C1CC1)C1CCN(c2ncc(C3CC3)cn2)CC1` [Example 88, N-Cyclopropyl-N-[1-(5-cyclopropyl-pyrimidin-2-yl)-piperidin-4-yl]-4-oxazol-5-yl-benzamide], for which the EC50 at human GPR119 came to 71 nM.

On human GPR119, `Cc1cnc(N2CCC(N(C(=O)c3ccc(-c4cnco4)cc3)C3CC3)CC2)nc1` [Example 89, N-Cyclopropyl-N-[1-(5-methyl-pyrimidin-2-yl)-piperidin-4-yl]-4-oxazol-5-yl-benzamide] registered an EC50 of 34 nM. This EC50 is about 2.1-fold lower than that of the compound before.

`Cc1nccn1-c1ccc(C(=O)N(C2CC2)C2CCN(c3ncc(C(F)(F)F)cc3F)CC2)cc1` [Example 90, N-Cyclopropyl-N-(3′-fluoro-5′-trifluoromethyl-3,4,5,6-tetrahydro-2H-[1,2′]bipyridinyl-4-yl)-4-(2-methyl-imidazol-1-yl)-benzamide] had an EC50 in assay [1] of 149 nM.

In turn, `O=C(c1ccc(-n2cncn2)cc1)N(C1CC1)C1CCN(c2ncc(C(F)(F)F)cc2F)CC1` [Example 91, N-Cyclopropyl-N-(3′-fluoro-5′-trifluoromethyl-3,4,5,6-tetrahydro-2H-[1,2′]bipyridinyl-4-yl)-4-[1,2,4]triazol-1-yl-benzamide] returned an EC50 in assay [1] of 48 nM.

In assay [1], `Cc1ncnn1-c1ccc(C(=O)N(C2CC2)C2CCN(c3ncc(C(F)(F)F)cc3F)CC2)cc1` [Example 92, N-Cyclopropyl-N-(3′-fluoro-5′-trifluoromethyl-3,4,5,6-tetrahydro-2H-[1,2′]bipyridinyl-4-yl)-4-(5-methyl-[1,2,4]triazol-1-yl)-benzamide] came in with an EC50 of 265 nM.

The compound `Cc1nccn1-c1ccc(C(=O)N(C2CC2)C2CCN(c3ncc(C(F)(F)F)cc3F)CC2)cc1F` [Example 93, N-Cyclopropyl-3-fluoro-N-(3′-fluoro-5′-trifluoromethyl-3,4,5,6-tetrahydro-2H-[1,2′]bipyridinyl-4-yl)-4-(2-methyl-imidazol-1-yl)-benzamide] yielded a half-maximal effective concentration (EC50) in assay [1] of 168 nM.

In turn, `O=C(c1ccc(-n2cncn2)c(F)c1)N(C1CC1)C1CCN(c2ncc(C(F)(F)F)cc2F)CC1` [Example 94, N-Cyclopropyl-3-fluoro-N-(3′-fluoro-5′-trifluoromethyl-3,4,5,6-tetrahydro-2H-[1,2′]bipyridinyl-4-yl)-4-[1,2,4]triazol-1-yl-benzamide] registered an EC50 in assay [1] of 10 nM. Against the preceding compound, the EC50 is about 17-fold lower.

For `Cc1ncnn1-c1ccc(C(=O)N(C2CC2)C2CCN(c3ncc(C(F)(F)F)cc3F)CC2)cc1F` [Example 95, N-Cyclopropyl-3-fluoro-N-(3′-fluoro-5′-trifluoromethyl-3,4,5,6-tetrahydro-2H-[1,2′]bipyridinyl-4-yl)-4-(5-methyl-[1,2,4]triazol-1-yl)-benzamide], in assay [1], a half-maximal effect (EC50) was put at 595 nM.

In turn, `Cc1nccn1-c1ccc(C(=O)N(C2CC2)C2CCN(c3nc(C(C)C)no3)CC2)cc1` [Example 96, N-Cyclopropyl-N-[1-(3-isopropyl-[1,2,4]oxadiazol-5-yl)-piperidin-4-yl]-4-(2-methyl-imidazol-1-yl)-benzamide] had a 50% effective concentration (EC50) in assay [1] of 1630 nM.

In assay [1], `CC(C)c1noc(N2CCC(N(C(=O)c3ccc(-n4cncn4)cc3)C3CC3)CC2)n1` [Example 97, N-Cyclopropyl-N-[1-(3-isopropyl-[1,2,4]oxadiazol-5-yl)-piperidin-4-yl]-4-[1,2,4]triazol-1-yl-benzamide] gave a concentration for a half-maximal effect (EC50) of 170 nM.

In turn, `Cc1nccn1-c1ccc(C(=O)N(C2CC2)C2CCN(c3nc(C(C)C)no3)CC2)cc1F` [Example 99, N-Cyclopropyl-3-fluoro-N-[1-(3-isopropyl-[1,2,4]oxadiazol-5-yl)-piperidin-4-yl]-4-(2-methyl-imidazol-1-yl)-benzamide] returned an EC50 in assay [1] of 1740 nM.

`CC(C)c1noc(N2CCC(N(C(=O)c3ccc(-n4cncn4)c(F)c3)C3CC3)CC2)n1` [Example 100, N-Cyclopropyl-3-fluoro-N-[1-(3-isopropyl-[1,2,4]oxadiazol-5-yl)-piperidin-4-yl]-4-[1,2,4]triazol-1-yl-benzamide] displayed an EC50 in assay [1] of 45 nM.

Take `Cc1ncnn1-c1ccc(C(=O)N(C2CC2)C2CCN(c3nc(C(C)C)no3)CC2)cc1F` [Example 101, N-Cyclopropyl-3-fluoro-N-[1-(3-isopropyl-[1,2,4]oxadiazol-5-yl)-piperidin-4-yl]-4-(5-methyl-[1,2,4]triazol-1-yl)-benzamide]: the concentration giving a half-maximal response (EC50) in assay [1] came to 1130 nM.

Regarding `CCc1cnc(N2CCC(N(C(=O)c3ccc(-n4ccnc4C)cc3)C3CC3)CC2)nc1` [Example 102, N-Cyclopropyl-N-[1-(5-ethyl-pyrimidin-2-yl)-piperidin-4-yl]-4-(2-methyl-imidazol-1-yl)-benzamide], a half-maximal effect in assay [1] (EC50) was put at 1090 nM.

`CCc1cnc(N2CCC(N(C(=O)c3ccc(-n4ncnc4C)cc3)C3CC3)CC2)nc1` [Example 103, N-Cyclopropyl-N-[1-(5-ethyl-pyrimidin-2-yl)-piperidin-4-yl]-4-(5-methyl-[1,2,4]triazol-1-yl)-benzamide] yielded an EC50 in assay [1] of 1590 nM.

The compound `CCc1cnc(N2CCC(N(C(=O)c3ccc(-n4ccnc4C)c(F)c3)C3CC3)CC2)nc1` [Example 104, N-Cyclopropyl-N-[1-(5-ethyl-pyrimidin-2-yl)-piperidin-4-yl]-3-fluoro-4-(2-methyl-imidazol-1-yl)-benzamide] returned an EC50 in assay [1] of 1950 nM. The EC50 values of the last two compounds are within 1.5-fold of each other.

In assay [1], `CCc1cnc(N2CCC(N(C(=O)c3ccc(-n4cncn4)c(F)c3)C3CC3)CC2)nc1` [Example 105, N-Cyclopropyl-N-[1-(5-ethyl-pyrimidin-2-yl)-piperidin-4-yl]-3-fluoro-4-[1,2,4]triazol-1-yl-benzamide] gave an EC50 of 53 nM. Against the preceding compound, the EC50 is about 37-fold lower.

On to `CCc1cnc(N2CCC(N(C(=O)c3ccc(-n4ncnc4C)c(F)c3)C3CC3)CC2)nc1` [Example 106, N-Cyclopropyl-N-[1-(5-ethyl-pyrimidin-2-yl)-piperidin-4-yl]-3-fluoro-4-(5-methyl-[1,2,4]triazol-1-yl)-benzamide], for which, in assay [1], the response was half-maximal at 885 nM (EC50).

As to `Cc1nccn1-c1ccc(C(=O)N(C2CC2)C2CCN(c3ncc(Cl)cn3)CC2)cc1` [Example 107, N-[1-(5-Chloro-pyrimidin-2-yl)-piperidin-4-yl]-N-cyclopropyl-4-(2-methyl-imidazol-1-yl)-benzamide], in assay [1], a half-maximal effect (EC50) was put at 549 nM.

On to `O=C(c1ccc(-n2cncn2)cc1)N(C1CC1)C1CCN(c2ncc(Cl)cn2)CC1` [Example 108, N-[1-(5-Chloro-pyrimidin-2-yl)-piperidin-4-yl]-N-cyclopropyl-4-[1,2,4]triazol-1-yl-benzamide], for which the EC50 in assay [1] stood at 552 nM. This EC50 and that of the compound before are within 1.5-fold of each other.
